Where two headings read alike, the source gives them in different places.
What was measured:
[1] = Pharmacokinetic study after a single oral administration to mice; assay type: in vivo; conditions: for cmax / tmax: single oral 100 mg/kg in 0.5% methylcellulose; for clast: concentration at last sampling time point; for AUC0-inf: extrapolated to infinity; for tlast: time of last sampling time point; for AUC0-t: time zero to tlast
Experimental: The aim of the study was to evaluate pharmacokinetic (PK) properties of five different batches including anhydrates and monohydrates of the crystal form A of compound 1a (cf. Table 1 in Example 5) after a single oral administration to mice. Three of the forms were anhydrous and two were monohydrates.
Compound 1a was administered as a suspension of 0.5% methyl cellulose (Sigma-Aldrich) in water at a dose of 100 mg/kg (10 ml/kg) by oral gavage to non-fasted female Balb/c mice (n=3).
Blood was collected by decapitation at 0.5, 1, 2, 4, 8, 12, 24, and 48 h after administration. Blood plasma was isolated by centrifugation at 4° C. (20,000×g for 10 min), transferred to microtubes containing lithium-heparin and frozen in aliquots at −70° C. until assayed by mass-spectrometry. Mean plasma concentration-time profiles (semi-logarithmic) of the five polymorphic crystal forms of compound 1a are shown in FIG. 6.
For PK evaluation, summary statistics and plotting of concentration/time curves, all values below the lower limit of quantification (LLOQ) were set to zero.

RBL-2H3 cells = test: Maximum tolerated concentration (cytotoxicity by lactate dehydrogenase release); assay type: cell-based, Rat; conditions: for MTC (maximum tolerated concentration): highest concentration not causing cytotoxicity (LDH release), RBL-2H3 cells; for SI (safety index): ratio between MTC and IC50
From the text: The safety index (SI) of a test compound is the ratio between the maximum tolerated concentration and the IC50 and is used as a measure of the relative safety of the test compound.

[2] = female Balb/c mice, plasma, 100 mg/kg
[3] = female Balb/c mice, single oral 100 mg/kg, 100 mg/kg
[4] = female Balb/c mice, single oral 100 mg/kg
[5] = female Balb/c mice, single oral 100 mg/kg, terminal half-life, 100 mg/kg

## CCCCCCCCCCCCCCCCN(C)CC(O)CS(=O)(=O)O (centres unmarked) [KP-0722.11, 2-hydroxy-3-(N-methylhexadecylammonio)propane-sulfonate]
[1]; [2]
  cmax: 571 ng/mL
  tmax: 2.0 h
[1]; [3]
  MRT: 4.8 h
  clast: 3.8 ng/mL
  AUC0-inf: 3179 ng·h/mL
  tlast: 24.0 h
  AUC0-t: 3162 ng·h/mL

## CCCCCCCCCCCCCCN(C)CC(O)CS(=O)(=O)O (centres unmarked) [Compound 1b, 2-hydroxy-3-(N-methyltetradecylammonio)propanesulfonate]
RBL-2H3 cells
  MTC (maximum tolerated concentration): 100 µM
  SI (safety index): 19.6

## CCCCCCCCCCCCCCCCN(C)CC(O)CS(=O)(=O)O (centres unmarked) [TN-0382.11, 2-hydroxy-3-(N-methylhexadecylammonio)propane-sulfonate]
[1]; [4]
  second plasma peak (time after administration): 8 h
[1]; [2]
  cmax: 627 ng/mL
  tmax: 1.0 h
[1]; [3]
  MRT: 5.9 h
  clast: 3.4 ng/mL
  AUC0-inf: 3547 ng·h/mL
  tlast: 24.0 h
  AUC0-t: 3535 ng·h/mL

## CCCCCCCCCCCCCC[N+](C)(C)CC(CS(=O)(=O)[O-])OC(C)=O (centres unmarked) [Compound 1e, 2-acetoxy-3-(N,N-dimethyltetradecylammonio)propanesulfonate]
RBL-2H3 cells
  MTC (maximum tolerated concentration): 100 µM
  SI (safety index): 25.6

## CCCCCCCCCCCCCCCCN(C)CC(O)CS(=O)(=O)O (centres unmarked) [KP-0726.11, 2-hydroxy-3-(N-methylhexadecylammonio)propane-sulfonate]
[1]; [4]
  second plasma peak (time after administration): 8 h
[1]; [2]
  cmax: 759 ng/mL
  tmax: 1.0 h
[1]; [3]
  MRT: 5.5 h
  clast: 1.2 ng/mL
  AUC0-inf: 3758 ng·h/mL
  tlast: 48.0 h
  AUC0-t: 3744 ng·h/mL
[1]; [5]
  t1/2: 8.2 h

## CCCCCCCCCCCCCCCCN(C)CC(O)CS(=O)(=O)O (centres unmarked) [2338-CF/30, 2-hydroxy-3-(N-methylhexadecylammonio)propane-sulfonate]
[1]; [2]
  tmax: 1.0 h
[1]; [3]
  clast: 1.8 ng/mL
  tlast: 48.0 h
[1]; female, Balb/c, mouse, plasma, po, 100 mg/kg, female Balb/c mice, plasma, read-out: cmax
  cmax: 1060 ng/mL
[1]; female, Balb/c, mouse, plasma, po, 100 mg/kg, female Balb/c mice, single oral 100 mg/kg, read-out: AUC0-inf
  AUC0-inf: 3140 ng·h/mL
[1]; female, Balb/c, mouse, plasma, po, 100 mg/kg, female Balb/c mice, single oral 100 mg/kg, read-out: MRT
  MRT: 5.5 h
[1]; female, Balb/c, mouse, plasma, po, 100 mg/kg, female Balb/c mice, single oral 100 mg/kg, terminal half-life
  half-life: 9.9 h
[1]; female, Balb/c, mouse, plasma, po, 100 mg/kg, female Balb/c mice, single oral 100 mg/kg, read-out: AUC0-t
  AUC0-t: 3120 ng·h/mL

## CCCCCCCCCCCCCC[N+](C)(C)CC(CS(=O)(=O)[O-])OC (centres unmarked) [Compound 1d, 2-methoxy-3-(N,N-dimethyl-N-tetradecylammonio)-propane-1-sulfonate]
RBL-2H3 cells
  MTC (maximum tolerated concentration): 75 µM
  SI (safety index): 22.7

## CCCCCCCCCCCCCCCCN(C)CC(O)CS(=O)(=O)O (centres unmarked) [2208-CF/1, 2-hydroxy-3-(N-methylhexadecylammonio)propane-sulfonate]
[1]; compared among the five forms, single oral 100 mg/kg
  overall exposure: highest
[1]; [2]
  cmax: 1003 ng/mL
  tmax: 1.0 h
[1]; [3]
  MRT: 5.0 h
  clast: 1.1 ng/mL
  AUC0-inf: 4412 ng·h/mL
  tlast: 48.0 h
  AUC0-t: 4400 ng·h/mL
[1]; [5]
  t1/2: 7.3 h
